In patent EP0302760A2, “Antiviral therapy for hepatitis B using 2',3'-dideoxynucleosides” (priority 1987, dated 1989):
≈ marks a conversion by molar mass, not a printed value. Where two headings read alike, the source gives them in different places.

Experiments:
hepatitis B virus = conditions: cited from earlier work
[1] = system: duck hepatitis B virus (DHBV); assay: Dot blot hybridization of DHBV DNA from DHBV-infected primary duck hepatocyte cultures; type: cell-based; conditions: for inhibition at 10 µg/mL / inhibition at 1 µg/mL / IC50: Duck hepatitis B virus, Hepatocyte; for inhibition at 10 µg/mL / inhibition at 1 µg/mL: 480 h; for inhibition at 10 µg/mL: read-out: PERCENTAGE INHIBITION, 10 µg/ml; for inhibition at 1 µg/mL: read-out: PERCENTAGE INHIBITION, 1 µg/ml; for IC50: DHBV-infected hepatocytes, drug from day 2, DNA extracted on day sixteen, radioactivity of dots counted, read-out: concentrations of nucleoside analog required to inhibit the virus replication by 50% (ID₅₀)
Method: Dose response curves for the purine 2′,3′-dideoxynucleosides and pyrimidine 2′,3′-dideoxynucleosides have been established by using the duck hepatitis B virus (DHBV) infected hepatocyte system. The DHBV-infected hepatocyte cultures were established as described in Example 1. Dideoxynucleoside analogs were added to the media of the hepatocyte cultures on day 2 and maintained in culture with media changes every two days. On day sixteen the DNA was extracted from the cells and the dot blots performed using the ³²P-labelled DHBV probe. The radioactivity of each "dot" was quantitated by cutting out the "dot" and counting the radioactivity. The abbreviations used in Figure 1, setting out the dose response curves, are as follows: ddA = 2′,3′-dideoxyadenosine; ddG = 2′,3′-dideoxyguanosine; ddDAPR = 2,6-diaminopurine 2′,3′-dideoxyriboside; ddI = 2′,3′-dideoxyinosine; ddT = 2′,3′-dideoxythymidine; ddC = 2′,3′-dideoxycytidine.
Newborn ducklings are infected with DHBV. After 5 to 7 days post-infection, samples of blood are taken from the ducklings and examined for DHBV DNA using dot hybridization with a specific DNA probe [Mason et al, Proc. Natl. Acad. Sci. USA 79, 3997-4001 (1982)]. The livers are removed from dot-blot positive ducklings and used to produce primary hepatocyte cultures infected with DHBV as previously described. (Tuttleman et al, J. of Virology, 58, 17-25). After 2 days in culture, antiviral agents are added to the culture media. The media are changed every 2 days and at selected times, the cells are removed and the total DNA extracted.
The DNA is spotted on nitrocellulose paper and probed with the ³²P-labelled DHBV DNA probe in accordance with the following procedure. The DNA from DHBV-infected hepatocytes was extracted and spotted onto a nitrocellular filter. The above described ³²P-nick translated - DHBV DNA (pDH-010=DHBV) probe was used. The DNA was extracted from 6-cm cell culture dishes at various times post-plating. In the VC group, cells were harvested at 2, 6, 8, 10, 14, 18 and 20 days. Duplicate samples were spotted for days 14, 18 and 20. In drug-treated groups, cells were harvested on days 8, 14 and 20. In Figure 1, this is from left to right. Drugs were added to the culture at 2 days post-plating and maintained throughout media changes every 2 days. The concentrations (µg/ml) used are indicated in Figure 1 for 2′,3′-dideoxythymidine (ddT), 2′,3′-dideoxycytidine (ddC), adenine arabinoside (ara A), 2′,3′-dideoxyadenosine (ddA) and 2′,3′-dideoxyguanosine (ddG). The total intracellular DNA was extracted from cells using the standard phenol extraction method. The cells in a 6-cm diameter Petri dish (approximately 5 x 10⁶ cells) were lysed in a lysis buffer containing 0.2% SDS, 150 mM Tris-HCl pH 8.0, 10 mM EDTA, 5 mM EGTA, and 150 mM NaCl. The cell lysate was digested with 0.5 mg/ml of pronase E (available from Sigma) at 37°C for 2 hours and deproteinized by extraction with an equal volume of phenol saturated with 20 mM Tris HCl, pH 7.5, 0.5 mM EDTA and 0.1% 8-hydroxyquinoline. Concentrated ammonium acetate [pH 7.0 (2.5 M)] was added to the aqueous phase to yield a 0.25 M ammonium acetate solution and the nucleic acids were precipitated with 2 volumes of 100% ethanol. The pellet of nucleic acid was washed with ethanol and dried. The DNA was dissolved in a solution containing 12.5 mM Tris HCl, pH 7.5, 10 mM EDTA, 30% glycerol and 0.01% bromophenol blue. One twelfth of the DNA sample was spotted onto the nitrocellulose for dot-blot analysis. ddA, ddG, ddC and ddT were purchased from Pharmacia. 2,6-Diaminopurine 2′,3′-dideoxyriboside [or 2,6-diamino-9-2,3-dideoxy-β-D-glycero-pentofuranosyl)purine] (ddDAPR) can be prepared by a procedure recently used for efficient conversion of adenosine into its ddAdo derivative (Robins et al, Tetrahedron Lett., 25, […], 1984; Hansske and Robins, Tetrahedron Lett., 26, 4295-4298, 1985).

DHBV DNA = assay: Southern blot analysis of intracellular viral DNA from DHBV-infected hepatocytes; type: cell-based, duck hepatitis B virus (DHBV); conditions: for inhibition at 1 µg/mL: Duck hepatitis B virus, Hepatocyte, similar experiments to the Southern blot of Example 2; for change in DHBV DNA forms in treated hepatocytes: from day 14 to day 20
Method: Southern blot analysis of intracellular viral DNA was separated on a 1.5% agarose gel. The DNA was extracted from DHBV-infected hepatocytes in a 6-cm dish and one fifth of the total DNA was applied onto each lane. […] Drug-treated groups were harvested 14 and 20 days post-plating. The DNA samples from drug-treated hepatocytes were ddA (10 µg/ml), day 14 (lane 5) and day 20 (lane 6), ddA (1 µg/ml), day 14 (lane 7) and day 20 (lane 8), ddG (10 µg/ml), day 14 (lane 9) and day 20 (lane 10), ddG (1 µg/ml), day 14 (lane 11) and day 20 (lane 12). The size markers (Kilobases) were obtained from HindIII digested bacteriophage λ DNA.

extracellular DHBV = assay: Southern blot analysis of extracellular virion DNA from culture media of DHBV-infected hepatocytes; type: cell-based, duck hepatitis B virus (DHBV); conditions: 1 µg/ml; culture media pooled from day 16 to day 20
Source text: Southern blot analysis of the extracellular virion DNA was separated on a 1.5% agarose gel. Culture media were pooled from the day 16 to day 20 post-plating. Pelleted virions were digested with pronase and the DNA from the entire sample was applied to each lane. […] RC in Figure 3 indicated relaxed circular DNA.

[2] = system: monkey kidney cells (Vero); assay: Toxicity (cell viability) in monkey kidney cells; type: cell-based; conditions: 100 µg/ml over a 10 day exposure
Method: (§1) The toxicity of the purine 2′,3′-dideoxynucleosides has been tested in duck hepatocytes and monkey kidney cells (Vero) to reveal that decreased cell viability with ddA or ddG at 100 µg/ml over a 10 day exposure was not detected. As is known, several lymphocyte cell lines have been examined before for viability and function in the presence of 2′,3′-dideoxynucleosides. These cell lines have not shown decreased viability and function in the presence of 2′,3′-dideoxynucleosides.

duck hepatocytes = assay: Toxicity (cell viability) in duck hepatocytes; type: cell-based; conditions: 100 µg/ml over a 10 day exposure
Method: as §1

adenosine deaminase = adenosine deaminase (Homo sapiens, UniProt P00813); conditions: Balzarini et al 1987; cited from earlier work
[3] = Conversion of ddDAPR to ddG in whole blood; type: in vitro ADME; conditions: whole blood from a duck, in 5 minutes; read-out: ddDAPR metabolized to ddG
Source text: We have also confirmed that ddDAPR is rapidly metabolized to ddG. This has been done using whole blood from a duck and measuring the rate of conversion of ddDAPR to ddG.

DHBV = assay: In vivo treatment of Pekin ducks persistently infected with DHBV, dot blot of sera; conditions: 10 mg/kg twice daily by intramuscular injection, four ducks
Method: Additional tests were conducted to verify the activity in vivo. Four Pekin ducks with proven persistent infection with DHBV were treated with 2,6-diaminopurine 2′,3′-dideoxyriboside (ddDAPR). The animals received 10 mg/kg twice daily by intramuscular injection for two weeks. […] All five animals had evidence of persistent infection with DHBV. […] The untreated duck (number 5) was not bled at this time. […] The control animal (number 5) remained strongly positive after 2 weeks (row c, column 5).

[4] = cited from earlier work
[5] = densitometry scans of the dot hybridization at 20 days

Sequence of adenosine deaminase (P00813 whole entry): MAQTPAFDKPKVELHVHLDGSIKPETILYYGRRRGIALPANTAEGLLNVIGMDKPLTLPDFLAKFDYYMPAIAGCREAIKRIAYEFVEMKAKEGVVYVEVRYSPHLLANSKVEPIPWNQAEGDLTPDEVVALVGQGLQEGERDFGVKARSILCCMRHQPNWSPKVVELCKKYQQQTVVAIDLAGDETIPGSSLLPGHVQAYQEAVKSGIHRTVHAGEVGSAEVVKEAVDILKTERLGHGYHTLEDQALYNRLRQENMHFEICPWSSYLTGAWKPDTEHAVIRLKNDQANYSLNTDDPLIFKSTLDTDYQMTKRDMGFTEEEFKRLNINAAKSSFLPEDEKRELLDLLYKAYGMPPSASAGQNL

In the case of `Nc1ncnc2c1ncn2[C@@H]1O[C@H](CO)[C@@H](O)[C@@H]1O` [araA, adenine arabinoside], the “toxicity associated with therapy” value (hepatitis B virus; chronic hepatitis B patients) is listed as “bone marrow suppression, neuromuscular pain and neurotoxicity”, the “treated patients that show some benefit from therapy” value (hepatitis B virus; chronic hepatitis B, most open and controlled studies) is listed as “about 30%” and the inhibition at 10 µg/mL [1, 5] is listed as roughly 63%.
`OC[C@@H]1CC[C@H](n2cnc3c(O)ncnc32)O1` [ddI, 2′,3′-dideoxyinosine] gave an inhibition at 1 µg/mL (DHBV DNA; 1 µg/ml) greater than 95% and an inhibition at 1 µg/mL [1, 5] of 96%.
In the case of `Nc1ccn([C@H]2CC[C@@H](CO)O2)c(=O)n1` [ddC, 2′,3′-dideoxycytidine, reference compound], the “production of extracellular virus” value (extracellular DHBV) is reported as “fail to inhibit”, the “PERCENTAGE INHIBITION” value ([1]; 1 µg/ml, densitometry scans of the dot hybridization at 20 days) is reported as “little inhibitory effect” and the inhibition at 1 µg/mL [1, 5] is reported as 0%. For the same compound, the inhibition at 10 µg/mL [1, 5] was roughly 57% and the IC50 ([1]; Figure 1) was 40 µg/mL (≈ 189 µM).
With `Nc1nc2c(ncn2[C@H]2CC[C@@H](CO)O2)c(=O)[nH]1` [ddG, 2′,3′-dideoxyguanosine] the “change in DHBV DNA forms in treated hepatocytes” value (DHBV DNA) was “decrease in all forms of DHBV DNA”, the “production of extracellular virus” value (extracellular DHBV) was “markedly decreased” and the decreased cell viability [2] was “not detected”. For the same compound, the inhibition at 1 µg/mL [1, 5] was greater than 99%, the inhibition at 10 µg/mL [1, 5] was greater than 99% and the IC50 ([1]; Figure 1) was 0.07 µg/mL (≈ 0.279 µM). For the same compound, the decreased cell viability (duck hepatocytes) was “not detected”.
In the case of “2′,3′-dideoxythymidine [ddT, reference compound]”, the “production of extracellular virus” value (extracellular DHBV) is reported as “fail to inhibit” and the “inhibition of DHBV replication” value ([1]; dose response curve, day sixteen, Figure 1) is reported as “no inhibition”.
For `Nc1nc(N)c2ncn([C@H]3CC[C@@H](CO)O3)c2n1` [ddDAPR, 2,6-diaminopurine 2′,3′-dideoxyriboside], the inhibition at 1 µg/mL (DHBV DNA; 1 µg/ml) is given as greater than 95%, the “deamination by adenosine deaminase” value (adenosine deaminase) is given as “deaminated by adenosine deaminase” and the metabolised at 5 min [3] is given as greater than 95%. For the same compound, the inhibition at 1 µg/mL [1, 5] was 98%, the IC50 ([1]; Figure 1) was 0.07 µg/mL (≈ 0.28 µM) and the “clearance of the virus from the sera” value (DHBV; after 1 week) was “completely cleared the virus from their sera”. The “clearance of the virus from the sera” value (DHBV; after 2 weeks) was “cleared from the sera”.
In the case of `Cc1cn([C@H]2C[C@H](N=[N+]=[N-])[C@@H](CO)O2)c(=O)[nH]c1=O` [AZT, 3′-azido-3′deoxythymidine], the peak plasma levels ([4]; after infusions of 1 mg/kg) is listed as 1 µg/mL and the peak plasma levels ([4]; after oral administration of 2 mg/kg) is listed as 1 µg/mL.
With `Nc1ncnc2c1ncn2[C@H]1CC[C@@H](CO)O1` [ddA, 2′,3′-dideoxyadenosine] the “inhibition of the synthesis of all forms of DHBV DNA” value (DHBV DNA; 1 µg/ml, RC, CCC and SS forms) was “very strong inhibition”, the “change in DHBV DNA forms in treated hepatocytes” value (DHBV DNA) was “small increase in RC DNA” and the “production of extracellular virus” value (extracellular DHBV) was “markedly decreased”. For the same compound, the decreased cell viability [2] was “not detected”, the inhibition at 1 µg/mL [1, 5] was greater than 99% and the inhibition at 10 µg/mL [1, 5] was greater than 99%. For the same compound, the IC50 ([1]; Figure 1) was 0.12 µg/mL (≈ 0.51 µM) and the decreased cell viability (duck hepatocytes) was “not detected”.
